Results: the NIST ThermoML archive (doi:10.1016/j.fluid.2012.12.001)

Experiment: an = ratio of the nth substance listed
Conditions: for viscosity / mass density: 101 kPa, Liquid; for viscosity: Capillary tube (Ostwald / Ubbelohde) method; for mass density: Vibrating tube method; for surface tension liquid-gas: Capillary rise

CC(O)C(=O)O (centres undefined) [2-hydroxypropanoic acid] + C[N+](C)(C)CCO.[Cl-]
Conditions	mass density [kg/m3]	surface tension liquid-gas [mN/m]	viscosity [mPa·s]
298.15 K, a1 = 1.3	1166.3	–	722.55
298.15 K, a1 = 1.5	1174.9	–	615.62
298.15 K, a1 = 2	1179.3	–	536.28
298.15 K, a1 = 2.5	1184.7	–	494.73
298.15 K, a1 = 3	1189.3	–	437.53
298.15 K, a1 = 3.5	1193.2	–	418.14
298.15 K, a1 = 5	1200.6	–	378.56
298.15 K, a1 = 8	1208	–	341.27
298.15 K, a1 = 10	1211.3	–	321.5
298.15 K, a1 = 15	1173.2	–	226.94
298.2 K, a1 = 2	–	48	–
303.15 K, a1 = 1.3	1163.1	–	508.17
303.15 K, a1 = 1.5	1171.4	–	428.98
303.15 K, a1 = 2	1175.8	–	370.38
303.15 K, a1 = 2.5	1181.1	–	341.17
303.15 K, a1 = 3	1185.6	–	300.21
303.15 K, a1 = 3.5	1189.4	–	285.25
303.15 K, a1 = 5	1196.7	–	254.91
303.15 K, a1 = 8	1204	–	226.58
303.15 K, a1 = 10	1207.1	–	213.35
303.15 K, a1 = 15	1207.1	–	163.42
303.3 K, a1 = 2	–	47.6	–
308.15 K, a1 = 1.3	1160	–	364.59
308.15 K, a1 = 1.5	1168.2	–	304.96
308.15 K, a1 = 2	1172.5	–	263.28
308.15 K, a1 = 2.5	1177.7	–	241.21
308.15 K, a1 = 3	1182.1	–	211.64
308.15 K, a1 = 3.5	1185.9	–	200.01
308.15 K, a1 = 5	1193	–	176.99
308.15 K, a1 = 8	1200.1	–	155.91
308.15 K, a1 = 10	1203	–	146.37
308.15 K, a1 = 15	1203	–	146.37
308.3 K, a1 = 2	–	47.3	–
313.15 K, a1 = 1.3	1157	–	267.49
313.15 K, a1 = 1.5	1165	–	222.55
313.15 K, a1 = 2	1169.3	–	191.68
313.15 K, a1 = 2.5	1174.4	–	174.9
313.15 K, a1 = 3	1178.6	–	153.04
313.15 K, a1 = 3.5	1182.3	–	144.01
313.15 K, a1 = 5	1189.3	–	126.42
313.15 K, a1 = 8	1196.2	–	110.53
313.15 K, a1 = 10	1199	–	103.52
313.15 K, a1 = 15	1199	–	103.52
313.5 K, a1 = 2	–	47	–
318.15 K, a1 = 1.3	1154	–	200.31
318.15 K, a1 = 1.5	1161.9	–	165.87
318.15 K, a1 = 2	1166.2	–	142.7
318.15 K, a1 = 2.5	1171.1	–	129.75
318.15 K, a1 = 3	1175.2	–	113.34
318.15 K, a1 = 3.5	1178.8	–	106.26
318.15 K, a1 = 5	1185.6	–	92.66
318.15 K, a1 = 8	1192.3	–	80.53
318.15 K, a1 = 10	1195	–	75.26
318.15 K, a1 = 15	1195	–	75.26
319.2 K, a1 = 2	–	46.7	–
323.15 K, a1 = 1.3	1151.1	–	152.8
323.15 K, a1 = 1.5	1158.9	–	126.22
323.15 K, a1 = 2	1163	–	108.45
323.15 K, a1 = 2.5	1167.9	–	98.3
323.15 K, a1 = 3	1171.8	–	85.77
323.15 K, a1 = 3.5	1175.3	–	80.16
323.15 K, a1 = 5	1181.9	–	69.53
323.15 K, a1 = 8	1188.4	–	60.12
323.15 K, a1 = 10	1191	–	56.1
323.15 K, a1 = 15	1191	–	56.1
323.5 K, a1 = 2	–	46.5	–
328.15 K, a1 = 1.3	1148.2	–	118.6
328.15 K, a1 = 1.5	1155.8	–	97.77
328.15 K, a1 = 2	1159.9	–	83.99
328.15 K, a1 = 2.5	1164.6	–	75.93
328.15 K, a1 = 3	1168.4	–	66.19
328.15 K, a1 = 3.5	1171.8	–	61.71
328.15 K, a1 = 5	1178.3	–	53.28
328.15 K, a1 = 8	1184.5	–	45.88
328.15 K, a1 = 10	1186.9	–	42.76
328.15 K, a1 = 15	1186.9	–	42.76
328.6 K, a1 = 2	–	46.2	–
333.15 K, a1 = 1.3	1145.3	–	93.55
333.15 K, a1 = 1.5	1152.7	–	76.99
333.15 K, a1 = 2	1156.7	–	66.16
333.15 K, a1 = 2.5	1161.3	–	59.67
333.15 K, a1 = 3	1165	–	52
333.15 K, a1 = 3.5	1168.3	–	48.38
333.15 K, a1 = 5	1174.6	–	41.63
333.15 K, a1 = 8	1180.5	–	35.72
333.15 K, a1 = 10	1182.9	–	33.26
333.15 K, a1 = 15	1182.9	–	33.26
333.2 K, a1 = 2	–	46	–
338.1 K, a1 = 2	–	45.7	–
338.15 K, a1 = 1.3	1142.4	–	74.84
338.15 K, a1 = 1.5	1149.7	–	61.57
338.15 K, a1 = 2	1153.6	–	53.08
338.15 K, a1 = 2.5	1158	–	47.66
338.15 K, a1 = 3	1161.6	–	41.53
338.15 K, a1 = 3.5	1164.8	–	38.58
338.15 K, a1 = 5	1170.9	–	33.1
338.15 K, a1 = 8	1176.6	–	28.33
338.15 K, a1 = 10	1178.8	–	26.35
338.15 K, a1 = 15	1178.8	–	26.35
343.15 K, a1 = 1.3	1139.6	–	60.71
343.15 K, a1 = 1.5	1146.7	–	49.92
343.15 K, a1 = 2	1150.5	–	43.05
343.15 K, a1 = 2.5	1154.8	–	38.64
343.15 K, a1 = 3	1158.2	–	33.66
343.15 K, a1 = 3.5	1161.3	–	31.24
343.15 K, a1 = 5	1167.2	–	26.74
343.15 K, a1 = 8	1172.7	–	22.83
343.15 K, a1 = 10	1174.7	–	21.23
343.15 K, a1 = 15	1174.7	–	21.23
348.15 K, a1 = 1.3	1136.7	–	49.84
348.15 K, a1 = 1.5	1143.7	–	41.01
348.15 K, a1 = 2	1147.4	–	35.4
348.15 K, a1 = 2.5	1151.5	–	31.75
348.15 K, a1 = 3	1154.9	–	27.66
348.15 K, a1 = 3.5	1157.8	–	25.64
348.15 K, a1 = 5	1163.5	–	21.91
348.15 K, a1 = 8	1168.8	–	18.68
348.15 K, a1 = 10	1170.7	–	17.36
348.15 K, a1 = 15	1170.7	–	17.36
353.15 K, a1 = 1.3	1133.9	–	41.4
353.15 K, a1 = 1.5	1140.7	–	34.08
353.15 K, a1 = 2	1144.3	–	29.46
353.15 K, a1 = 2.5	1148.3	–	26.41
353.15 K, a1 = 3	1151.5	–	23.01
353.15 K, a1 = 3.5	1154.2	–	21.32
353.15 K, a1 = 5	1159.8	–	18.2
353.15 K, a1 = 8	1164.8	–	15.49
353.15 K, a1 = 10	1166.7	–	14.38
353.15 K, a1 = 15	1166.7	–	14.38
358.15 K, a1 = 1.3	1131.1	–	34.75
358.15 K, a1 = 1.5	1137.7	–	28.64
358.15 K, a1 = 2	1141.2	–	24.79
358.15 K, a1 = 2.5	1145.1	–	22.22
358.15 K, a1 = 3	1148.1	–	19.37
358.15 K, a1 = 3.5	1150.9	–	17.94
358.15 K, a1 = 5	1156.1	–	15.29
358.15 K, a1 = 8	1160.9	–	13.01
358.15 K, a1 = 10	1162.7	–	12.05
358.15 K, a1 = 15	1162.7	–	12.05
363.15 K, a1 = 1.3	1128.3	–	29.44
363.15 K, a1 = 1.5	1134.7	–	24.31
363.15 K, a1 = 2	1138.1	–	21.08
363.15 K, a1 = 2.5	1141.9	–	18.89
363.15 K, a1 = 3	1144.7	–	16.45
363.15 K, a1 = 3.5	1147.4	–	15.29
363.15 K, a1 = 5	1152.3	–	12.99
363.15 K, a1 = 8	1157.1	–	11.05
363.15 K, a1 = 10	1158.6	–	10.23
363.15 K, a1 = 15	1158.6	–	10.23
